From patent US11965091B2, “Biocide free associative thickener” (Rohm and Haas Company, priority 2019, dated 2024) come the findings set out here.

The experiment deals with standard pool of bacteria, yeasts, and molds. Kind of experiment: Microbial challenge test. Type of experiment: cell-based. The conditions noted are these: for microbial challenge test (by acid): HEURs treated with the named acid. As to the method:
Compositions within and outside the scope of the present invention were tested for microbial growth susceptibility using a series of microbial challenge tests.
Samples were inoculated 2 times at 7-d intervals with 10^6-10^7 colony forming units per milliliter of sample (CFU/mL) of a standard pool of bacteria, yeasts, and molds obtained from American Type Culture Collection (ATCC) that are common contaminants in coatings. Once inoculated, the samples were stored in 25° C. incubators. Test samples were monitored for microbial contamination by agar plating using a standard streak plate method. Samples were plated 1 and 7 day after each microbial challenge onto trypticase soy agar (TSA) and potato dextrose agar (PDA) plates. All agar plates were checked daily up to 7 d after plating to determine the number of microorganisms surviving in the test samples. When not being checked, the agar plates were stored in incubators, 30° C. for TSA plates and 25° C. for PDA plates. The extent of microbial contamination was established by counting the colonies, where the rating score was determined from the number of microbial colonies observed on the agar plates. Reported results come from day 7 readings. Table 1 illustrates the rating system used to estimate the level of microbial contamination on streak plates. Colonies refers to the number of colonies on the plate.

Counter-ions that a name gives are not always drawn.

Take `O=S(=O)(O)O` [Example H2SO4, sulfuric acid]: the “microbial challenge test (by acid)” value was “passed”. On the same count and under the same terms, the same measure for `Cl` [HCl, hydrochloric acid]: “passed”; for `O=P(O)(O)CN(CP(=O)(O)O)CP(=O)(O)O` [NTMTPA, nitrilotris(methylene)triphosphonic acid]: “passed”. For the molecule `O=P(O)(O)O` [phosphoric acid], the “microbial challenge test (by acid)” value is “passed”. The “microbial challenge test at a pH of 2.8” value (pH of 2.8) is “not optimal”. Besides, the “microbial challenge test at a pH of 3.3” value (pH of 3.3) is on record as “failed”.
